Measured values taken from patent publication US12686652B2, “Methods of increasing irrigation water and fertilizer delivery to soil using formic acid and formate salts, making a formate salt from carbon dioxide, and generating a carbon credit” (Deerpoint Group, Inc., priority 2023, dated 2026).
Where “and” joins values, the source holds several entries; their conditions need not be identical. Equal values may be shown once. Read-outs that look alike come from different tables or passages of the source.

Assays:
[1] = for Liquid Eluted after 60 min / Liquid Eluted after 120 min / Time (50 g of liquid, in min) / Liquid Eluted after 240 min: Ca formate 22 ppm by moles, average of two columns; for Liquid Eluted after 60 min / Liquid Eluted after 120 min / Time (50 g of liquid, in min): HCO2H 0.33% by weight
Text: The objective was to investigate the behavior of different irrigation water treatments and determine the relative amounts of water that passed through the soil columns. The column retention times reflect the rate at which the liquid passes through the soil. Understanding these retention times provides insights about the transport and movement of irrigation water (and any fertilizers dissolved therein) through the soil, which has implications for the volume of water passing into and through the root zone, nutrient availability to crops, leaching of contaminants, and overall soil health.
The data in Table 1 is for the average of the two soil samples.

[2] = Text: The irrigation water at the second farm was from a different source than the first farm.
[3] = first farm soil, duplicate columns A and B
[4] = ICP and flow injection (FIA) analyses of solutions passed through soil columns, second farm; settings: single soil sample
Text: FIA was used to determine the content of the listed anion (e.g., NO3, Cl, PO4, etc.). Results are presented from a single soil sample.

[5] = first pass, dry soil, second farm (FIG. 3)
[6] = 1st pass, Alternating = formic acid pass
[7] = 2nd pass, Alternating = calcium formate pass
[8] = 3rd pass, Alternating = formic acid pass
[9] = 4th pass, Alternating = calcium formate pass
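Wherever Mn in solution passed through soil column (ICP) is given: eluate from PVC columns holding 100 g of dry ground farm soil, analysed by ICP-OES for element content after the solution had drained through, irrigation water measured as received for reference.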

O=C[O-].O=C[O-].[Ca+2] [Ca formate, calcium formate]
Drainage Rate: Time (50 g), percentage relative to irrigation water ([1]; 1st pass, first farm soil): 66.7% | Drainage Rate: liquid eluted at 60 mins, percentage relative to irrigation water ([1]; 1st pass, first farm soil): 180% | Drainage Rate: liquid eluted at 120 mins, percentage relative to irrigation water ([1]; 1st pass, first farm soil): 152% | Liquid Eluted after 60 min ([1]; 1st pass, first farm soil): 28.6 g | Liquid Eluted after 120 min ([1]; 1st pass, first farm soil): 53.9 g | Time (50 g of liquid, in min) ([1]; 1st pass, first farm soil): 120 min | Drainage Rate: Time (50 g), percentage relative to irrigation water ([1]; 2nd pass, first farm soil): 66.7% | Drainage Rate: liquid eluted at 60 mins, percentage relative to irrigation water ([1]; 2nd pass, first farm soil): 157% | Drainage Rate: liquid eluted at 120 mins, percentage relative to irrigation water ([1]; 2nd pass, first farm soil): 150% | Drainage Rate: liquid eluted at 240 min, percentage relative to irrigation water ([1]; 2nd pass, first farm soil): 137% | Liquid Eluted after 60 min ([1]; 2nd pass, first farm soil): 33.3 g | Liquid Eluted after 120 min ([1]; 2nd pass, first farm soil): 59.9 g | Time (50 g of liquid, in min) ([1]; 2nd pass, first farm soil): 120 min | Liquid Eluted after 240 min ([1]; 2nd pass, first farm soil): 98.5 g | Drainage Rate: Time (50 g), percentage relative to irrigation water ([1]; 3rd pass, first farm soil): 83.3% | Drainage Rate: liquid eluted at 60 mins, percentage relative to irrigation water ([1]; 3rd pass, first farm soil): 138% | Drainage Rate: liquid eluted at 120 mins, percentage relative to irrigation water ([1]; 3rd pass, first farm soil): 135% | Drainage Rate: liquid eluted at 240 min, percentage relative to irrigation water ([1]; 3rd pass, first farm soil): 131% | Liquid Eluted after 60 min ([1]; 3rd pass, first farm soil): 26.4 g | Liquid Eluted after 120 min ([1]; 3rd pass, first farm soil): 48.8 g | Time (50 g of liquid, in min) ([1]; 3rd pass, first farm soil): 150 min | Liquid Eluted after 240 min ([1]; 3rd pass, first farm soil): 86.7 g | Drainage Rate: Time (50 g), percentage relative to irrigation water ([1]; 4th pass, first farm soil): 83.3% | Drainage Rate: liquid eluted at 60 mins, percentage relative to irrigation water ([1]; 4th pass, first farm soil): 123% | Drainage Rate: liquid eluted at 120 mins, percentage relative to irrigation water ([1]; 4th pass, first farm soil): 118% | Drainage Rate: liquid eluted at 240 min, percentage relative to irrigation water ([1]; 4th pass, first farm soil): 110% | Liquid Eluted after 60 min ([1]; 4th pass, first farm soil): 24.1 g | Liquid Eluted after 120 min ([1]; 4th pass, first farm soil): 44.6 g | Time (50 g of liquid, in min) ([1]; 4th pass, first farm soil): 150 min | Liquid Eluted after 240 min ([1]; 4th pass, first farm soil): 75.0 g | Liquid retained by the soil samples on average ([1]; first pass, dry soil, first farm, 100 ml added (FIG. 1)): about 36 ml | Improvement in amount of liquid eluted compared to the irrigation water ([1]; fixed periods 60, 120 and 240 mins, first farm soil): 110-180% | Liquid retained by the soil samples on average [2, 5]: 43 to 44 mL | Time at which solution had completed passing through the soil column on average [2, 5]: about 240 minutes | Time of first appearance of liquid from the columns on average [2, 5]: 20 to 30 min | Amount of liquid passed through the columns compared with irrigation water at the same lengths of time ([2]; first pass, second farm, from 20-30 minutes up to 240 minutes): more than three times as much | Time at which solution had completed passing through the soil column on average ([2]; second pass, wet/damp soil, second farm (FIG. 4)): about 390 minutes | B in solution passed through soil column (ICP) ([3]; 1st pass): 4.35 ppm and 4.97 ppm | Ca in solution passed through soil column (ICP) ([3]; 1st pass): 135.1 ppm and 142.4 ppm | K in solution passed through soil column (ICP) ([3]; 1st pass): 10.81 ppm and 11.82 ppm | Mg in solution passed through soil column (ICP) ([3]; 1st pass): 53.6 ppm and 56.4 ppm | Mn in solution passed through soil column (ICP) ([3]; 1st pass): 1.95 ppm and 2.09 ppm | Na in solution passed through soil column (ICP) ([3]; 1st pass): 82.3 ppm and 88.9 ppm | P in solution passed through soil column (ICP) ([3]; 1st pass): 0.45 ppm and 0.36 ppm | S in solution passed through soil column (ICP) ([3]; 1st pass): 99.1 ppm and 103.0 ppm | Si in solution passed through soil column (ICP) ([3]; 1st pass): 26.5 ppm and 27.6 ppm | B in solution passed through soil column (ICP) ([3]; 2nd pass): 2.41 ppm and 2.40 ppm | Ca in solution passed through soil column (ICP) ([3]; 2nd pass): 26.6 ppm and 25.2 ppm | K in solution passed through soil column (ICP) ([3]; 2nd pass): 5.69 ppm and 5.73 ppm | Mg in solution passed through soil column (ICP) ([3]; 2nd pass): 10.4 ppm and 9.8 ppm | Mn in solution passed through soil column (ICP) ([3]; 2nd pass): 0.19 ppm and 0.22 ppm | Na in solution passed through soil column (ICP) ([3]; 2nd pass): 36.8 ppm and 38.2 ppm | P in solution passed through soil column (ICP) ([3]; 2nd pass): 0.40 ppm and 0.41 ppm | S in solution passed through soil column (ICP) ([3]; 2nd pass): 21.2 ppm and 19.6 ppm | Si in solution passed through soil column (ICP) ([3]; 2nd pass): 25.2 ppm and 26.2 ppm | B in solution passed through soil column (ICP) ([3]; 3rd pass): 1.74 ppm and 1.48 ppm | Ca in solution passed through soil column (ICP) ([3]; 3rd pass): 21.1 ppm and 19.4 ppm | K in solution passed through soil column (ICP) ([3]; 3rd pass): 6.01 ppm and 5.41 ppm | Mg in solution passed through soil column (ICP) ([3]; 3rd pass): 8.2 ppm and 7.6 ppm | Na in solution passed through soil column (ICP) ([3]; 3rd pass): 32.7 ppm and 31.1 ppm | P in solution passed through soil column (ICP) ([3]; 3rd pass): 0.68 ppm and 0.58 ppm | S in solution passed through soil column (ICP) ([3]; 3rd pass): 13.9 ppm and 13.0 ppm | Si in solution passed through soil column (ICP) ([3]; 3rd pass): 28.4 ppm and 26.2 ppm | B in solution passed through soil column (ICP) ([3]; 4th pass): 0.69 ppm and 0.73 ppm | Ca in solution passed through soil column (ICP) ([3]; 4th pass): 15.0 ppm and 15.9 ppm | K in solution passed through soil column (ICP) ([3]; 4th pass): 5.09 ppm and 5.06 ppm | Mg in solution passed through soil column (ICP) ([3]; 4th pass): 5.9 ppm and 6.0 ppm | Mn in solution passed through soil column (ICP) ([3]; 4th pass): 0.05 ppm and 0.04 ppm | Na in solution passed through soil column (ICP) ([3]; 4th pass): 21.6 ppm and 22.9 ppm | P in solution passed through soil column (ICP) ([3]; 4th pass): 0.56 ppm | S in solution passed through soil column (ICP) ([3]; 4th pass): 5.3 ppm and 5.5 ppm | Si in solution passed through soil column (ICP) ([3]; 4th pass): 22.3 ppm and 22.7 ppm | B in solution passed through soil column (ICP) [4, 6]: 0.5 ppm | Ca in solution passed through soil column (ICP) [4, 6]: 76.1 ppm | Cl^− in solution passed through soil column (FIA) [4, 6]: 288.0 ppm | K in solution passed through soil column (ICP) [4, 6]: 4.5 ppm | Mg in solution passed through soil column (ICP) [4, 6]: 19.6 ppm | NO3^− in solution passed through soil column (FIA) [4, 6]: 0.0 ppm | Na in solution passed through soil column (ICP) [4, 6]: 169.0 ppm | P in solution passed through soil column (ICP) [4, 6]: 1.0 ppm | S in solution passed through soil column (ICP) [4, 6]: 51.4 ppm | Si in solution passed through soil column (ICP) [4, 6]: 26.3 ppm | B in solution passed through soil column (ICP) [4, 7]: 0.3 ppm | Ca in solution passed through soil column (ICP) [4, 7]: 24.0 ppm | Cl^− in solution passed through soil column (FIA) [4, 7]: 92.1 ppm | K in solution passed through soil column (ICP) [4, 7]: 2.5 ppm | Mg in solution passed through soil column (ICP) [4, 7]: 6.1 ppm | NO3^− in solution passed through soil column (FIA) [4, 7]: 0.0 ppm | Na in solution passed through soil column (ICP) [4, 7]: 110.4 ppm | P in solution passed through soil column (ICP) [4, 7]: 1.1 ppm | S in solution passed through soil column (ICP) [4, 7]: 14.8 ppm | Si in solution passed through soil column (ICP) [4, 7]: 26.9 ppm | B in solution passed through soil column (ICP) [4, 8]: 0.2 ppm | Ca in solution passed through soil column (ICP) [4, 8]: 21.7 ppm | Cl^− in solution passed through soil column (FIA) [4, 8]: 91.9 ppm | K in solution passed through soil column (ICP) [4, 8]: 2.4 ppm | Mg in solution passed through soil column (ICP) [4, 8]: 5.5 ppm | NO3^− in solution passed through soil column (FIA) [4, 8]: 0.0 ppm | Na in solution passed through soil column (ICP) [4, 8]: 96.4 ppm | P in solution passed through soil column (ICP) [4, 8]: 1.0 ppm | S in solution passed through soil column (ICP) [4, 8]: 10.3 ppm | Si in solution passed through soil column (ICP) [4, 8]: 24.3 ppm | B in solution passed through soil column (ICP) [4, 9]: 0.2 ppm | Ca in solution passed through soil column (ICP) [4, 9]: 30.4 ppm | Cl^− in solution passed through soil column (FIA) [4, 9]: 93.6 ppm | K in solution passed through soil column (ICP) [4, 9]: 2.4 ppm | Mg in solution passed through soil column (ICP) [4, 9]: 7.5 ppm | NO3^− in solution passed through soil column (FIA) [4, 9]: 0.0 ppm | Na in solution passed through soil column (ICP) [4, 9]: 95.4 ppm | P in solution passed through soil column (ICP) [4, 9]: 0.9 ppm | S in solution passed through soil column (ICP) [4, 9]: 10.1 ppm | Si in solution passed through soil column (ICP) [4, 9]: 23.3 ppm
